Assay results: the supplement of paper PMC10883282
± gives the standard deviation of the averaged measurements.

Test system: KHOS-NP
Experiment: relative viability vs DMSO control (72 h) (fraction); higher = more viable cells
How it was run: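 Sarcoma cell lines went into 384-well plates at densities chosen to reach 80–90% confluence. After 24 h, each well received 2.5 µl of serially diluted compound, with source plates running from 10 mM to 0.0002 mM, and the plates were kept 72 h at 37 °C, 5% CO2, alongside 0.1% DMSO vehicle and a 5 µM positive control. Relative viability was derived from ATPLite readings as percent growth and averaged over up to triplicate wells. The data were then rescaled so that 1 stands for full and 0 for none.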

SMILES | relative viability (0.00017 µM) | relative viability (0.00051 µM) | relative viability (0.00152 µM) | relative viability (0.00457 µM) | relative viability (0.01372 µM) | relative viability (0.04115 µM) | relative viability (0.1235 µM) | relative viability (0.3704 µM) | relative viability (1.111 µM) | relative viability (3.333 µM) | relative viability (10 µM)
CCc1cc2c(cc1N1CCC(N3CCOCC3)CC1)C(C)(C)c1[nH]c3cc(C#N)ccc3c1C2=O [Alectinib] | 1.07 ± 0.032 | 1.09 ± 0.031 | 1.082 ± 0.0076 | 1.08 ± 0.011 | 1.08 ± 0.013 | 1.089 ± 0.0044 | 1.09 ± 0.021 | 1.074 ± 0.0034 | 1.06 ± 0.026 | 1.05 ± 0.01 | 1.04 ± 0.044
C[C@@H](c1ccc2nccn2c1)n1nnc2ncc(-c3cnn(C)c3)nc21 [Volitinib] | 1.07 ± 0.012 | 1.09 ± 0.018 | 1.09 ± 0.013 | 1.091 ± 0.0095 | 1.08 ± 0.015 | 1.08 ± 0.024 | 1.07 ± 0.015 | 1.06 ± 0.038 | 1.04 ± 0.035 | 1.02 ± 0.011 | 0.8916 ± 0.004
CC1(C)CNc2cc(NC(=O)c3cccnc3NCc3ccncc3)ccc21 [Motesanib] | 1.03 ± 0.03 | 1.04 ± 0.021 | 1.03 ± 0.021 | 1.01 ± 0.028 | 1.02 ± 0.037 | 1.02 ± 0.023 | 1.03 ± 0.013 | 1.03 ± 0.021 | 1 ± 0.021 | 0.973 ± 0.024 | 0.882 ± 0.048
CN1CCN(c2ccc3nc(-c4c(N)c5c(F)cccc5[nH]c4=O)[nH]c3c2)CC1 [Dovitinib] | 1.08 ± 0.038 | 1.11 ± 0.018 | 1.107 ± 0.0074 | 1.104 ± 0.007 | 1.13 ± 0.025 | 1.11 ± 0.029 | 1.1 ± 0.033 | 1.04 ± 0.07 | 1.03 ± 0.035 | 0.677 ± 0.029 | 0.248 ± 0.032
CNC(=O)c1cc(Oc2ccc(NC(=O)Nc3ccc(Cl)c(C(F)(F)F)c3)c(F)c2)ccn1 [Regorafenib] | 1.09 ± 0.013 | 1.11 ± 0.012 | 1.12 ± 0.019 | 1.12 ± 0.013 | 1.112 ± 0.0027 | 1.1 ± 0.016 | 0.787 ± 0.57 | 1.07 ± 0.018 | 0.938 ± 0.055 | 0.569 ± 0.014 | 0.238 ± 0.083
Cc1nc(NC(=O)N2CCC[C@H]2C(N)=O)sc1-c1ccnc(C(C)(C)C(F)(F)F)c1 [Alpelisib] | 1.07 ± 0.031 | 1.073 ± 0.0087 | 1.06 ± 0.024 | 1.05 ± 0.021 | 1.03 ± 0.028 | 1.02 ± 0.018 | 1.02 ± 0.067 | 1.04 ± 0.014 | 0.992 ± 0.053 | 0.9227 ± 0.0047 | 0.828 ± 0.049
CCN1CCN(Cc2ccc(Nc3ncc(F)c(-c4cc(F)c5nc(C)n(C(C)C)c5c4)n3)nc2)CC1 [Abemaciclib] | 1.04 ± 0.032 | 1.02 ± 0.029 | 1.02 ± 0.018 | 1.03 ± 0.017 | 1.033 ± 0.0059 | 1.033 ± 0.01 | 1.04 ± 0.014 | 1.055 ± 0.0084 | 1.01 ± 0.048 | 0.753 ± 0.036 | 0.6015 ± 0.0059
CC[C@H](Nc1ncnc2[nH]cnc12)c1nc2cccc(F)c2c(=O)n1-c1ccccc1 [Idelalisib] | 1.117 ± 0.0096 | 1.12 ± 0.017 | 1.12 ± 0.022 | 1.105 ± 0.01 | 1.11 ± 0.041 | 1.11 ± 0.025 | 1.1 ± 0.046 | 1.1 ± 0.024 | 1.085 ± 0.0061 | 1.06 ± 0.043 | 1.04 ± 0.019
C=CC(=O)N1CCC[C@@H](n2nc(-c3ccc(Oc4ccccc4)cc3)c3c(N)ncnc32)C1 [Ibrutinib] | 1.08 ± 0.025 | 1.086 ± 0.0071 | 1.08 ± 0.025 | 1.07 ± 0.013 | 1.05 ± 0.032 | 1.04 ± 0.014 | 1.05 ± 0.015 | 1.01 ± 0.045 | 1.034 ± 0.01 | 1.03 ± 0.043 | 0.995 ± 0.043
COc1cc2nccc(Oc3ccc(NC(=O)Nc4cc(C)on4)c(Cl)c3)c2cc1OC [Tivozanib] | 1.08 ± 0.013 | 1.06 ± 0.016 | 1.06 ± 0.027 | 1.08 ± 0.021 | 1.074 ± 0.005 | 1.06 ± 0.034 | 1.09 ± 0.018 | 1.05 ± 0.031 | 1.06 ± 0.023 | 1.03 ± 0.027 | 0.719 ± 0.015
C[C@]1(O)C[C@@H](c2nc(-c3ccc4ccc(-c5ccccc5)nc4c3)c3c(N)nccn32)C1 [Linsitinib] | 1.11 ± 0.025 | 1.09 ± 0.011 | 1.07 ± 0.025 | 1.08 ± 0.011 | 1.08 ± 0.026 | 1.08 ± 0.012 | 1.08 ± 0.029 | 1.07 ± 0.05 | 1.06 ± 0.064 | 1.02 ± 0.027 | 0.8696 ± 0.0082
C=CC(=O)Nc1cccc(Oc2nc(Nc3ccc(N4CCN(C)CC4)cc3)nc3ccsc23)c1 [Olmutinib] | 1.058 ± 0.01 | 1.06 ± 0.011 | 1.068 ± 0.0024 | 1.067 ± 0.0084 | 1.07 ± 0.019 | 1.08 ± 0.026 | 1.054 ± 0.0094 | 1.074 ± 0.0078 | 1.06 ± 0.017 | 1.04 ± 0.029 | 0.926 ± 0.081
O=C(Nc1cnn2ccc(N3CCC[C@@H]3c3cc(F)ccc3F)nc12)N1CC[C@H](O)C1 [Larotrectinib] | 1.1 ± 0.025 | 1.09 ± 0.013 | 1.08 ± 0.016 | 1.09 ± 0.024 | 1.1 ± 0.016 | 1.06 ± 0.03 | 1.05 ± 0.053 | 1.08 ± 0.021 | 1.05 ± 0.027 | 1.02 ± 0.014 | 1.01 ± 0.038
